The text below walks through data of patent US20070232594A1, “Aromatic amide derivatives, medicinal compositions containing the same, medical uses of both” (priority 2004, published 2007).

The experiment addresses human V2 receptor (Homo sapiens, UniProt P30518). As to the kind of experiment: Study to confirm the agonism of human V2 receptor (intracellular Ca2+, HEK293 cells coexpressing human V2 receptor and Gqs chimeric protein). The format is cell-based. The arrangement: expressed in transfected cells; host or cells: HEK293 cells (American Type Culture Collection), transient transfection with pCI-neo/hV2 and pLEC-Gqs5. Here is the method:
The Study to Confirm the Agonism of Human V2 Receptor
The experiment to confirm the response of the test compounds to human V2 receptor was carried out using the cells prepared as described below in order to use this confirmation study to see the agonism of human V2 receptor of the test compounds.
The test compounds were dissolved in dimethylsulfoxide at 10 mM and solutions of the test compounds were prepared by 10-fold serial dilution with the Assay buffer (0.1% BSA, 20 mM HEPES/Hank's balanced salt solution, pH 7.4) at the concentration of 0.1 nM to 10 μM, which were used in this study.
Human V2 receptor couples with Gs protein, one of the G-coupling protein, and consequently produces cyclic adenosine 3′, 5′-monophosphate (cAMP) via adenylate cyclase. This cAMP produce can be substituted to intracellular increase of Ca^2+ with coexpressing Gqs, a chimeric protein, and human V2 receptor (Mol. Pharmacol., Vol. 50, pp. 885-890, 1996). The responses of the test compounds for human V2 receptor were quantified by measuring this intracellular Ca^2+. The changes of intracellular Ca^2+ after adding the test compounds at each concentration as mentioned above (0.1 nM to 10 μM) were measured with a FlexStation (Molecular Devices) using a FLIPR CALCIUM ASSAY KIT (Molecular Devices).
The intrinsic activities (IA) of the test compounds were calculated from the maximum response of the test compounds as that of AVP was considered to be 1. In case of a full agonist, the EC50 values of the test compounds were calculated as the maximum response of AVP was considered to be 100% and in the case of a partial agonist, EC50 values of test compounds were calculated as the maximum response of own test compounds were considered to be 100%. The concentration that achieved to 50% response of the maximum response in a concentration-response curve was considered as EC50 value. The values of EC50 obtained in this study were shown in Table 68 described below as indications of the agonism of human V2 receptor.
The Preparation of the Cells Using Confirmation Study of an Agonism of Human V2, Receptor (HEK293 Cells Coexpressed Human V2 Receptor and Gqs Chimeric Protein)
HEK293 cells (American Type Culture Collection) were incubated in the Eagle's Minimum Essential Medium (EMEM, Invitrogen) containing 1 mM sodium pyruvate, nonessential amino acids (0.1 mM), streptomycin (100 μg/mL), penicillin (100 U/mL), 10% fetal calf serum (Sanko chemicals) in an incubator with 5% CO2 at 37° C. The transfection was carried out by adding pCI-neo hV2 expression vector, expression vector inserted with the sequence coding Gqs chimeric protein (pLEC-Gqs5, LiveWare, Molecular Devices) and Lipofectamine2000 (Invitrogen), all diluted with OPTI-MEM I Reduced Serum Medium I (Invitrogen), to the cell suspension which was prepared from the confluent cells suspended with EMEM as mentioned above without antibiotics at 1×10^6 cells/mL. After the transfection, the cells (HEK293 cells coexpressed human V2 receptor and Gqs chimeric protein) were incubated in an incubator with 5% CO2 for two days and were used as cells for confirming agonism of human V2 receptor, and used for assessment of the test compounds. The expression plasmid vector of human V2 receptor represented as pCI-neo/hV2 above was constructed by the method as described below.
The Method of Construction of Human V2 Receptor Expression Plasmid Vector
cDNA library was obtained from reverse transcription of human kidney total RNA using SuperScript II RNase H-reverse transcriptase (Invitrogen) and oligo dT. The DNA fragment encoding human V2 receptor was amplified by the PCR method using the cDNA library as a template, primers used in combination of each forward primer (sequence no. 1-3 shown below) and each reverse primer (sequence no. 4-6 shown below) respectively and pfu DNA polymerase (Stratagene). This amplified DNA fragment and pCR-blunt kit (Invitrogen), a cloning plasmid vector, were ligated by a general method of the kit. […]

In general, EC50 refers to the concentration that produces a half-maximal response.

Chain of human V2 receptor (P30518 whole entry): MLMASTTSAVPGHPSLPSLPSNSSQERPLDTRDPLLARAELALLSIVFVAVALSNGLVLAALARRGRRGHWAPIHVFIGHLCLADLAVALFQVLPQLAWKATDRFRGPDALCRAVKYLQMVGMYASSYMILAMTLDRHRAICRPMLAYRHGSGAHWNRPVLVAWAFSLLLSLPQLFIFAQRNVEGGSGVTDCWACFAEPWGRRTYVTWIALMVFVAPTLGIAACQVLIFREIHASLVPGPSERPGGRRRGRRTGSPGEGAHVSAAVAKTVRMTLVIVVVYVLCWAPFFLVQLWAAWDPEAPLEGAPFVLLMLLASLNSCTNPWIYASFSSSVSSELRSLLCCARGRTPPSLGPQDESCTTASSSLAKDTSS

Turning to `CCOC(=O)CN1Cc2ccccc2N(C(=O)c2ccc(N3CCCC3)cc2Cl)CC1=O` [Example 1-7, ethyl [1-(2-chloro-4-pyrro-lidin-1-ylbenzoyl)-3-ox-o-1,2,3,5-tetra-hydrobenzo[e]-1,4-di-azepin-4-yl]acetate], the EC50 (intracellular Ca2+, HEK293 cells coexpressing human V2 receptor and Gqs) was determined as 4 nM. Moreover, the “IA (intrinsic activity)” value (maximum response relative to AVP = 1) is listed as 0.92.
